# Data published in PMC8481833, “Kinetic Characterization and Inhibitor Screening of Pyruvate Kinase I From Babesia microti” (Frontiers in Microbiology, 2021).
# Several values for one entry are separate records, joined by “and”; a condition that tells them apart may be missing. Identical values can stand only once. Entries after “also recorded” stand apart in the source; their conditions may differ. Like-named read-outs stand apart in the source and are kept apart here.
# B1: rBmPYKI (Babesia microti strain RI) (protein)
# chain: MNRIIKAVPDDEISKKLTKIVCTIGPASANVDKIVAMIKSGMNVCRFNFSHGTHETHYETMKLVKEAMKQVPGKHIALMIDTKGPEIRTGKLAQGDYIQLTAGQTVKITSDQSVLCTNEIISITYEHLTSSVKPGNIILMADGTISFKVISVEKDYVVGEVMNSARLSNRKNVNLPGVKVNIPVIGEKDKKDILEFGVAHNMDYIAVSFVQSANDILSVKKLIGHNSNLKIISKIENVEGLINFDEILEVSDGIMIARGDLGMEIPSEKVFIAQKMMIYKCNIAGKPVITATQMLESMIVNPRPTRAEVTDVANAVLDGSDCVMLSGETANGAFSVECVRLMSHICLEAESCTDHMSVYLNLLKAIPTPVTTQEAIVRCSVGAIYSVNASCIIALTETGKTASLLAKYKPNQLIIAICNNENVAAGLALNRGVVPIMVDSFIDSDANINHAIEFAKKNNIVVEGSTVLAVHGMVSCAPGNTDMLKILNV
# notes: recombinant, pGEX-6p-1, E. coli BL21, GST tag removed by 3C protease, 54 kDa
# What was measured:
# [1] = system: B. microti; experiment: Growth inhibition of Babesia microti by in vitro culture; assay type: cell-based; conditions: for IC50: read-out: IC50 B. microti
# Protocol: Infected mouse blood was collected and centrifuged at 845 × g for 5 min, and the infected mouse RBCs was isolated. The RBCs infected by B. microti were diluted to 5% with uninfected mouse and human RBCs (10:1). […] Drug-free wells were set up as blank control. All treatments were carried out in triplicate. After 72 h of incubation, parasitemia was examined by Giemsa staining under a microscope.
# [2] = target: T1, rBmPYKI (Babesia microti, UniProt A0A1N6LXR4); experiment: biochemical; assay type: biochemical
# [3] = in vitro; conditions: African green monkey
# [4] = target: rBmLDH (Babesia microti, UniProt I7J7V6); experiment: biochemical; assay type: biochemical
# Chain of rBmLDH (I7J7V6 1-332): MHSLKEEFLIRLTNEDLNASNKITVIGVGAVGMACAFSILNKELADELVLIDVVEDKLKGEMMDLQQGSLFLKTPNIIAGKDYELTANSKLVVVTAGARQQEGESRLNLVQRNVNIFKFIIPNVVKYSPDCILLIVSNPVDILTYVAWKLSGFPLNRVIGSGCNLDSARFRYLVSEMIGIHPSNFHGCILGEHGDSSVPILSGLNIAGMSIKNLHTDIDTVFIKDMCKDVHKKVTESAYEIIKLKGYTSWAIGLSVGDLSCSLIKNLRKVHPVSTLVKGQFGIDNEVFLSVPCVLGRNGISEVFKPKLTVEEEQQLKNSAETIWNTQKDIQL
# [5] = in vitro; conditions: human
# [6] = system: B. microti; experiment: Rescue assay of tannic acid (pyruvate or ATP added); assay type: cell-based, Babesia microti; conditions: for effect of addition of ATP on the inhibitory effect: 2 mM ATP; for effect of addition of ATP on the inhibitory effect / effect of addition of pyruvate on the inhibitory effect / inhibition of B. microti as compared with DMSO: tannic acid 1 μM, DA about 10 μM; for effect of addition of pyruvate on the inhibitory effect: 2 mM pyruvic acid
# Protocol: MilliporeSigma) was used as the positive control, and DMSO was used as the negative control because tannic acid was diluted in DMSO. The group only containing medium without any treatment was used as the blank control. Each test was performed in triplicate.
# [7] = system: Vero cells
# [8] = system: HFF cells
# [9] = Cytotoxicity assay, Cell Counting Kit-8, HFF cells; conditions: human
# [10] = Cytotoxicity assay, Cell Counting Kit-8, Vero cells; conditions: African green monkey
# [11] = system: PYK from T. gondii; conditions: cited from earlier work
# [12] = system: PYK from P. falciparum; conditions: cited from earlier work
# [13] = system: corresponding enzymes from mammals; conditions: cited from earlier work
# [14] = target: T1, rBmPYKI; experiment: Enzyme kinetics of rBmPYKI on substrates PEP and ADP; assay type: biochemical; conditions: substrate of rBmPYKI
# Protocol: (§1) To determine the enzymatic activity of purified rBmPYKI, the GST tag was removed from the recombinant protein; and the indirect coupled lactate dehydrogenase (LDH) assay was applied. Recombinant B. microti LDH (rBmLDH) protein, the only one isoform in B. microti, was expressed and purified according to previously published protocol ([Yu et al., 2019]). The standard enzyme kinetic assay was conducted by monitoring the decrease in NADH at a wavelength of 340 nm using a microplate reader (BioTek, Winooski, VT, United States). One unit of the PYK activity here was defined as 1 μmol of NADH oxidized per minute at 37°C. The samples were continuously measured at 2, 7, 12, 17, 22, and 27 min. To determine the effects of pH and the concentration of Mg^2+ and K^+ on rBmPYKI, the assay was performed in the pH range of 5.5–8.5, and the Mg^2+ and K^+ concentrations ranged from 0 to 200 mM (0, 25, 50, 75, 100, 125, 150, 175, and 200 mM). The standard assay mixture (200 μl) contained 50 mM of Tris-HCl (pH 7.0), 50 mM of MgCl2, 20 mM of KCl, 0.5 mM of NADH (MilliporeSigma), 3 mM of PEP (MilliporeSigma), 1 mM of ADP (MilliporeSigma), 100 ng of rBmLDH (20 U), and 100 ng of rBmPYKI. The initial velocity for the rate of […] of NADH in the first 5 min was calculated, and the relative percentage activity was determined. The kinetic parameters for PEP (at 0.5, 1, 2, 3, 4, and 5 mM) under saturating ADP conditions (3 mM) were determined. The Michaelis–Menten constant (Km) for ADP under 7 mM of PEP (saturation) was determined at 0.05, 0.1, 0.2, 0.4, 0.6, 0.8, 1.0, 1.5, and 2.0 mM.
# [15] = system: trypanosomes; set-up: method as in Worku et al., 2015; conditions: net ATP depletion by inhibiting PYK; ref Worku et al., 2015; cited from earlier work
# [16] = substrate: C=C(OP(=O)(O)O)C(=O)O; experiment: Enzyme kinetics of rBmPYKI on substrates PEP and ADP; assay type: biochemical, Babesia microti; conditions: other: substrate of rBmPYKI; other substrate saturating; pH 7.0; 37.0 °C
# Protocol: as §1, with “The standard assay mixture (200 μl) contained 50 mM of Tris-HCl (pH 7.0), 50 mM of MgCl2, 20 mM of KCl, 0.5 mM of NADH (MilliporeSigma), 3 mM of PEP (MilliporeSigma), 1 mM of ADP (MilliporeSigma), 100 ng of rBmLDH (20 U), and 100 ng of rBmPYKI.” left out, “The Michaelis–Menten constant (Km) for ADP under 7 mM of PEP (saturation) was determined at 0.05, 0.1, 0.2, 0.4, 0.6, 0.8, 1.0, 1.5, and 2.0 mM.” left out
# [17] = substrate: Nc1ncnc2c1ncn2[C@@H]1O[C@H](COP(=O)(O)OP(=O)(O)O)[C@@H](O)[C@H]1O; experiment: Indirect coupled LDH assay following NADH decrease at 340 nm, pH 7.0, 37 °C, 50 mM MgCl2, 20 mM KCl, ADP varied 0.05-2.0 mM at saturating 7 mM PEP, no FBP.; assay type: biochemical
# Protocol: To determine the enzymatic activity of purified rBmPYKI, the GST tag was removed from the recombinant protein; and the indirect coupled lactate dehydrogenase (LDH) assay was applied. Recombinant B. microti LDH (rBmLDH) protein, the only one isoform in B. microti, was expressed and purified according to previously published protocol ([Yu et al., 2019]). The standard enzyme kinetic assay was conducted by monitoring the decrease in NADH at a wavelength of 340 nm using a microplate reader (BioTek, Winooski, VT, United States). One unit of the PYK activity here was defined as 1 μmol of NADH oxidized per minute at 37°C. The samples were continuously measured at 2, 7, 12, 17, 22, and 27 min. […] The initial velocity for the rate of […] of NADH in the first 5 min was calculated, and the relative percentage activity was determined. The kinetic parameters for PEP (at 0.5, 1, 2, 3, 4, and 5 mM) under saturating ADP conditions (3 mM) were determined. […]
# Statistical analysis was conducted with GraphPad Prism 7.0 (GraphPad Software, La Jolla, CA, United States). Statistical significance was evaluated by one-way ANOVA; and all data were presented as the mean ± standard deviation (SD) from at least three independent experiments performed in duplicate. […]
# [18] = in vitro culture, 72 h, parasitemia by Giemsa staining
molecule,measurement,setting,value
O=c1cc(-c2ccc(O)cc2)oc2cc(O)cc(O)c12 [Apigenin],IC50,"[1]; Babesia microti, in vitro culture, 72 h, parasitemia by Giemsa staining",2.1 ± 1.16 µM
same,IC50,[2],70 µM
same,effect on the activity of rBmPYKI,[2],significantly inhibit
same,CC50,[3],58.6 ± 2.97 µM
same,effect on rBmLDH / LDH reaction activity,[4],did not affect
same,IC50,[4]; read-out: IC50 rBmLDH,> 1950 µM
same,CC50,[5],33 ± 1.18 µM
"CC(=O)NCC(=O)O.CC(=O)NCC(=O)O.N=C(N)c1ccc(N=NNc2ccc(C(=N)N)cc2)cc1 [DA, diminazene aceturate]",effect of addition of ATP on the inhibitory effect,[6],did not affect
same,effect of addition of pyruvate on the inhibitory effect,[6],no effect
same,inhibition of B. microti as compared with DMSO,[6],significantly inhibit
Tannic acid,inhibition rate of B. microti growth,"[1]; 20 μM, 72 h",80%
same,IC50,[1]; [18],0.77 µM
same,effect on the activity of rBmPYKI,[2],significantly inhibit; also recorded: significantly reduce
same,inhibition of the activity of rBmPYKI,[2]; 3 µM,more than 90%
same,IC50,[2]; read-out: IC50 rBmPYKI,0.5 µM and 0.49 µM
same,CC50,[7],53 ± 2.8 µM
same,IC50,[4]; read-out: IC50 rBmLDH,23.6 µM
same,CC50,[8],36.5 ± 4.75 µM
same,inhibition of B. microti growth,"[6]; 1 μM, concentration used in rescue assay",70%
same,effect of addition of ATP on the inhibitory effect,[6],did not affect
same,effect of addition of pyruvate on the inhibitory effect,[6],rescue
same,microscopy observation of inhibited parasites,[6]; Giemsa staining,mostly located outside RBCs
same,inhibition of B. microti as compared with DMSO,[6],significantly inhibit
CC(C)=CC[C@@H](O)C1=CC(=O)c2c(O)ccc(O)c2C1=O [Shikonin],hemolysis of RBCs,"[1]; 100 μM, infected RBC culture",Slight hemolysis
same,IC50,"[1]; Babesia microti, 72 h",1.73 ± 0.69 µM
same,inhibition at 20 µM,"[1]; Babesia microti, 72 h, read-out: inhibition rate of B. microti growth",80%
same,IC50,[2],187 µM
same,effect on the activity of rBmPYKI,[2],significantly inhibit
same,CC50,[9],0.63 ± 0.4 µM
same,effect on rBmLDH / LDH reaction activity,[4],did not affect
same,IC50,[4]; read-out: IC50 rBmLDH,> 1950 µM
same,CC50,[10],2.37 ± 0.26 µM
CN(CCOc1ccc(CC2SC(=O)NC2=O)cc1)c1ccccn1 (centres unmarked) [Rosiglitazone],effect on the activity of rBmPYKI,[2],significantly inhibit; also recorded: significantly reduce
same,IC50,[2]; read-out: IC50 rBmPYKI,6.89 µM
COc1c(O)cc(O)c2c(=O)cc(-c3ccccc3)oc12 [Wogonin],IC50,[2],185 µM
same,IC50,[4],143 µM
same,effect on rBmLDH / LDH reaction activity,[4],obvious inhibitory effect
CC(C)=CCC1=C(O)C(=O)c2ccccc2C1=O [Lapachol],effect on the activity of rBmPYKI,[2],no effect
same,IC50,[4],721 µM
same,effect on rBmLDH / LDH reaction activity,[4],no effect
OC[C@H]1O[C@@H](Oc2cc(O)cc(/C=C/c3ccc(O)cc3)c2)[C@H](O)[C@@H](O)[C@@H]1O [Polydatin],IC50,[2],92.9 µM
same,IC50,[4],142 µM
same,effect on rBmLDH / LDH reaction activity,[4],obvious inhibitory effect
O=c1cc(-c2ccccc2)oc2ccccc12 [Flavone],effect on the activity of rBmPYKI,[2],no effect
same,IC50,[2]; read-out: IC50 rBmPYKI,> 1950 µM
same,effect on rBmLDH / LDH reaction activity,[4],no effect
same,IC50,[4]; read-out: IC50 rBmLDH,> 1950 µM
Cc1ccc(C(=O)Nc2ccc(S(=O)(=O)O)c3cc(S(=O)(=O)O)cc(S(=O)(=O)O)c23)cc1NC(=O)c1cccc(NC(=O)Nc2cccc(C(=O)Nc3cc(C(=O)Nc4ccc(S(=O)(=O)O)c5cc(S(=O)(=O)O)cc(S(=O)(=O)O)c45)ccc3C)c2)c1 [Suramin],IC50,[2]; read-out: IC50 rBmPYKI,125 µM
same,effect on rBmLDH / LDH reaction activity,[4],obvious inhibitory effect
same,IC50,[4]; read-out: IC50 rBmLDH,44.2 µM
CCc1ccc(CCOc2ccc(CC3SC(=O)NC3=O)cc2)nc1 (centres unmarked) [Pioglitazone],effect on the growth of B. microti,"[1]; in vitro culture, 72 h",no significant effect
same,IC50,[2],44 µM
same,effect on the activity of rBmPYKI,[2],significantly inhibit
same,effect on rBmLDH / LDH reaction activity,[4],did not affect
same,IC50,[4]; read-out: IC50 rBmLDH,> 1950 µM
O=c1cc(-c2ccccc2)oc2ccc(O)cc12 [6-Hydroxyflavone],IC50,[2]; read-out: IC50 rBmPYKI,390 µM
same,effect on rBmLDH / LDH reaction activity,[4],obvious inhibitory effect
same,IC50,[4]; read-out: IC50 rBmLDH,828 µM
"C=C(OP(=O)(O)O)C(=O)O [PEP, phosphoenolpyruvate]",Km,[11],750 µM
same,Km,[12],190 µM
CC1=C(CSC(=S)N2CCCCC2)C(=O)c2ccccc2C1=O [PKM2 inhibitor],inhibition rate of B. microti growth,"[1]; 50 μM, 72 h",80%
same,IC50,[1]; [18],1.15 ± 0.11 µM
same,effect on the activity of rBmPYKI,[2],significantly inhibit
same,IC50,[2]; read-out: IC50 rBmPYKI,23 µM
same,CC50,[7],39.2 ± 5.05 µM
same,effect on rBmLDH / LDH reaction activity,[4],did not affect
same,IC50,[4]; read-out: IC50 rBmLDH,> 1950 µM
same,CC50,[8],18.6 ± 2.46 µM
Nc1ncnc2c1ncn2[C@@H]1O[C@H](COP(=O)(O)OP(=O)(O)O)[C@@H](O)[C@H]1O [ADP],Km,[13],350 µM
same,Km,[11],180 µM
same,Kcat,[14],21.8 S^–1
same,KcatKM,[14],5.62 × 10^4 S^–1⋅M^–1
same,Vmax,[14],242 ± 16 U/mg
same,Km,[14]; other substrate saturating,388 ± 87 µM
same,Km,[12],126 µM
CCOC(=O)C(C)=O [Ethyl pyruvate],time of exposure to kill trypanosomes,[15],≤ 3 h
B1,Km,[16],655 ± 117 µM
same,Vmax,[16],250 µmol/min/mg
same,Km,[17],388 ± 87 µM
same,Vmax,[17],242 µmol/min/mg
